Measurements reported in PubChem BioAssay (NCI).
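All cell lines were grown in 96-well plates and treated with compound for 48 hours. At the GI50, growth is halved. TGI: total growth inhibition.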

Key:
Assay in all cases: NCI anticancer screen, dose series, 48 h
HCC-2998 colon = tested on: HCC-2998 colon
RPMI-8226 leukemia = tested on: RPMI-8226 leukemia
NCI/ADR-RES ovarian = tested on: NCI/ADR-RES ovarian
NCI-H23 lung = tested on: NCI-H23 lung
UACC-62 melanoma = tested on: UACC-62 melanoma
MALME-3M melanoma = tested on: MALME-3M melanoma
KM12 colon = tested on: KM12 colon
BT-549 breast = tested on: BT-549 breast
A549 NSCLC = tested on: A549 NSCLC
T-47D breast = tested on: T-47D breast
SW-620 colon = tested on: SW-620 colon
CCRF-CEM leukemia = tested on: CCRF-CEM leukemia
A498 renal = tested on: A498 renal
ACHN renal = tested on: ACHN renal
MDA-MB-231 breast = tested on: MDA-MB-231 breast
LOX IMVI melanoma = tested on: LOX IMVI melanoma
K-562 leukemia = tested on: K-562 leukemia
SF-295 CNS = tested on: SF-295 CNS
NCI-H226 lung = tested on: NCI-H226 lung
U251 CNS = tested on: U251 CNS
SN12C renal = tested on: SN12C renal
DU-145 prostate = tested on: DU-145 prostate
SK-MEL-28 melanoma = tested on: SK-MEL-28 melanoma
MOLT-4 leukemia = tested on: MOLT-4 leukemia
UACC-257 melanoma = tested on: UACC-257 melanoma
OVCAR-4 ovarian = tested on: OVCAR-4 ovarian
PC-3 prostate = tested on: PC-3 prostate
SNB-19 CNS = tested on: SNB-19 CNS
SF-268 CNS = tested on: SF-268 CNS
HOP-62 NSCLC = tested on: HOP-62 NSCLC
SNB-75 CNS = tested on: SNB-75 CNS
OVCAR-3 ovarian = tested on: OVCAR-3 ovarian
HS 578T breast = tested on: HS 578T breast
RXF 393 renal = tested on: RXF 393 renal
UO-31 renal = tested on: UO-31 renal
HL-60(TB) leukemia = tested on: HL-60(TB) leukemia
OVCAR-8 ovarian = tested on: OVCAR-8 ovarian
MDA-MB-435 = tested on: MDA-MB-435
TK-10 renal = tested on: TK-10 renal
SK-MEL-2 melanoma = tested on: SK-MEL-2 melanoma
SK-MEL-5 melanoma = tested on: SK-MEL-5 melanoma
SK-OV-3 ovarian = tested on: SK-OV-3 ovarian
OVCAR-5 ovarian = tested on: OVCAR-5 ovarian
HT29 colon = tested on: HT29 colon
HCT-116 colon = tested on: HCT-116 colon
NCI-H460 lung = tested on: NCI-H460 lung
IGROV1 ovarian = tested on: IGROV1 ovarian
HOP-92 NSCLC = tested on: HOP-92 NSCLC
HCT-15 colon = tested on: HCT-15 colon
EKVX NSCLC = tested on: EKVX NSCLC
786-0 renal = tested on: 786-0 renal
MCF7 breast = tested on: MCF7 breast
CAKI-1 renal = tested on: CAKI-1 renal
SR leukemia = tested on: SR leukemia
SF-539 CNS = tested on: SF-539 CNS
M14 melanoma = tested on: M14 melanoma
COLO 205 colon = tested on: COLO 205 colon

CCOC(=O)c1c(NCC(=O)Nc2ccc(Br)cc2)sc2c1CCCC2
GI50 (HCC-2998 colon): 1.82 µM
TGI (HCC-2998 colon): 3.36 µM
GI50 (RPMI-8226 leukemia): 2.09 µM
TGI (RPMI-8226 leukemia): 5.32 µM
GI50 (NCI/ADR-RES ovarian): 2.6 µM
TGI (NCI/ADR-RES ovarian): 8.51 µM
GI50 (NCI-H23 lung): 1.81 µM
TGI (NCI-H23 lung): 4.6 µM
GI50 (UACC-62 melanoma): 1.48 µM
TGI (UACC-62 melanoma): 3.16 µM
GI50 (MALME-3M melanoma): 1.77 µM
TGI (MALME-3M melanoma): 3.81 µM
GI50 (KM12 colon): 1.97 µM
TGI (KM12 colon): 4.1 µM
GI50 (BT-549 breast): 1.45 µM
TGI (BT-549 breast): 3.97 µM
GI50 (A549 NSCLC): 2.78 µM
TGI (A549 NSCLC): 8.46 µM
GI50 (T-47D breast): 1.76 µM
TGI (T-47D breast): 4.61 µM
GI50 (SW-620 colon): 2.28 µM
TGI (SW-620 colon): 6.1 µM
GI50 (CCRF-CEM leukemia): 0.801 µM
TGI (CCRF-CEM leukemia): 6.72 µM
GI50 (A498 renal): 1.85 µM
TGI (A498 renal): 5.67 µM
GI50 (ACHN renal): 1.74 µM
TGI (ACHN renal): 3.29 µM
GI50 (MDA-MB-231 breast): 2.08 µM
TGI (MDA-MB-231 breast): 5.21 µM
GI50 (LOX IMVI melanoma): 0.829 µM
TGI (LOX IMVI melanoma): 2.81 µM
GI50 (K-562 leukemia): 1.66 µM
TGI (K-562 leukemia): 7.09 µM
GI50 (SF-295 CNS): 3.95 µM
TGI (SF-295 CNS): 14.3 µM
GI50 (NCI-H226 lung): 1.72 µM
TGI (NCI-H226 lung): 6.48 µM
GI50 (U251 CNS): 1.51 µM
TGI (U251 CNS): 3.17 µM
GI50 (SN12C renal): 2.51 µM
TGI (SN12C renal): 7.16 µM
GI50 (DU-145 prostate): 1.68 µM
TGI (DU-145 prostate): 3.28 µM
GI50 (SK-MEL-28 melanoma): 1.71 µM
TGI (SK-MEL-28 melanoma): 3.49 µM
GI50 (MOLT-4 leukemia): 0.712 µM
TGI (MOLT-4 leukemia): 4.66 µM
GI50 (UACC-257 melanoma): 2.8 µM
TGI (UACC-257 melanoma): 8.2 µM
GI50 (OVCAR-4 ovarian): 1.74 µM
TGI (OVCAR-4 ovarian): 4.77 µM
GI50 (PC-3 prostate): 2.46 µM
TGI (PC-3 prostate): 9.71 µM
GI50 (SNB-19 CNS): 2.2 µM
TGI (SNB-19 CNS): 6.31 µM
GI50 (SF-268 CNS): 2.06 µM
TGI (SF-268 CNS): 8.24 µM
GI50 (HOP-62 NSCLC): 2.32 µM
TGI (HOP-62 NSCLC): 5.71 µM
GI50 (SNB-75 CNS): 2.22 µM
TGI (SNB-75 CNS): 14.3 µM
GI50 (OVCAR-3 ovarian): 1.61 µM
TGI (OVCAR-3 ovarian): 3.12 µM
GI50 (HS 578T breast): 2.89 µM
TGI (HS 578T breast): 32.3 µM
GI50 (RXF 393 renal): 1.34 µM
TGI (RXF 393 renal): 2.76 µM
GI50 (UO-31 renal): 1.5 µM
TGI (UO-31 renal): 3.3 µM
GI50 (HL-60(TB) leukemia): 1.57 µM
TGI (HL-60(TB) leukemia): 4.37 µM
GI50 (OVCAR-8 ovarian): 4 µM
TGI (OVCAR-8 ovarian): > 100 µM
GI50 (MDA-MB-435): 1.9 µM
TGI (MDA-MB-435): 5.58 µM
GI50 (TK-10 renal): 1.74 µM
TGI (TK-10 renal): 3.46 µM
GI50 (SK-MEL-2 melanoma): 1.84 µM
TGI (SK-MEL-2 melanoma): 5.49 µM
GI50 (SK-MEL-5 melanoma): 1.65 µM
TGI (SK-MEL-5 melanoma): 3.08 µM
GI50 (SK-OV-3 ovarian): 3.49 µM
TGI (SK-OV-3 ovarian): 10.9 µM
GI50 (OVCAR-5 ovarian): 2.02 µM
TGI (OVCAR-5 ovarian): 3.77 µM
GI50 (HT29 colon): 1.91 µM
TGI (HT29 colon): 3.98 µM
GI50 (HCT-116 colon): 1.63 µM
TGI (HCT-116 colon): 3.81 µM
GI50 (NCI-H460 lung): 1.94 µM
TGI (NCI-H460 lung): 4.31 µM
GI50 (IGROV1 ovarian): 2.13 µM
TGI (IGROV1 ovarian): 12.1 µM
GI50 (HOP-92 NSCLC): 1.42 µM
TGI (HOP-92 NSCLC): 3.84 µM
GI50 (HCT-15 colon): 1.38 µM
TGI (HCT-15 colon): 3.47 µM
GI50 (EKVX NSCLC): 1.81 µM
TGI (EKVX NSCLC): 4.91 µM
GI50 (786-0 renal): 2.26 µM
TGI (786-0 renal): 6.04 µM
GI50 (MCF7 breast): 1.48 µM
TGI (MCF7 breast): 3.51 µM
GI50 (CAKI-1 renal): 2.06 µM
TGI (CAKI-1 renal): 7.46 µM
GI50 (SR leukemia): 1.22 µM
TGI (SR leukemia): 5.33 µM
GI50 (SF-539 CNS): 1.73 µM
TGI (SF-539 CNS): 3.18 µM
GI50 (M14 melanoma): 1.9 µM
TGI (M14 melanoma): 4.9 µM
GI50 (COLO 205 colon): 2.01 µM
TGI (COLO 205 colon): 4.52 µM
